According to patent publication US11407771B2 (priority 2018, dated 2022):
pIC50: −log10 of the molar value. Where two headings read alike, the source gives them in different places.

Legend:
[1] = tested on: MUC5AC mucin formation in IL-13-stimulated hTEC
MAPK13 [2] = target: T1, MAPK13 (Homo sapiens (Human), UniProt O15264); conditions: read-out: MAPK13 inhibition
MAPK13 [3] = target: T1, MAPK13; assay: biochemical

T1 sequence (O15264 whole entry): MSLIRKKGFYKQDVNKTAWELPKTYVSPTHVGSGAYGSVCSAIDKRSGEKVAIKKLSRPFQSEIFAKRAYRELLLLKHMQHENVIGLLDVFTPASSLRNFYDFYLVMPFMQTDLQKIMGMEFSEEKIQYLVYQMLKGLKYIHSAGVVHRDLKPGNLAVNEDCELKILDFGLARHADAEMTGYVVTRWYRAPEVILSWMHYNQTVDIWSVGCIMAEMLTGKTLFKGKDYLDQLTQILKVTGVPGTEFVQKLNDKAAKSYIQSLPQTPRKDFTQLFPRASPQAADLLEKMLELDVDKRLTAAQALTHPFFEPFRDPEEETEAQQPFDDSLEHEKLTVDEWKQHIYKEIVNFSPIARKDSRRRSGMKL

pIC50 (MAPK13 [3])	SMILES	MUC5AC production [1]	pIC50 (MAPK13 [2])
–	O=c1ncn2nc(Sc3ccc(F)cc3F)ccc2c1-c1c(Cl)cccc1Cl [Compound 401, VX-745, reference compound]	no significant inhibition	–
–	CC(=O)Nc1cc(CCc2cnc(NC(=O)Nc3cc(C4CC4)ccc3F)s2)ccn1 [Compound 398, N-[4-(2-{2-[3-(5-Cyclopropyl-2-fluoro-phenyl)-ureido]-thiazol-5-yl}-ethyl)-pyridin-2-yl]-acetamide]	marked attenuation	> 6.60
6.00 to 6.60	Cc1ccc(-n2nc(C3(C)COC3)cc2NC(=O)Nc2ncc(CCc3ccncc3)s2)cc1 [Compound 271]	–	–
6.00 to 6.60	COC(=O)Nc1cc(CCc2ccc(NC(=O)Nc3cc(C(C)(C)C)nn3CC3CC3)c(F)c2)ccn1 [Compound 316, [4-(2-{4-[3-(5-tet-Butyl-2-cyclopropylmethyl-2H-pyrazol-3-yl)-ureido]-3-fluoro-phenyl}-ethyl)-pyridin-2-yl]-carbamic acid methyl ester]	–	–
–	CC(=O)Nc1cc(Oc2ccc(NC(=O)Nc3cc(C4CC4)ccc3F)c(F)c2)ccn1 [Compound 397, N-(4-{4-[3-(5-Cyclopropyl-2-fluoro-pheny)-ureido]-3-fluoro-phenoxy}-pyridin-2-yl)-actamde]	marked attenuation	> 6.60
6.00 to 6.60	Cc1ccc(-n2nc(C(C)(C)CO)cc2NC(=O)Nc2ccc(Oc3ccncc3)cc2F)cc1 [Compound 279, 1-[2-Fluoro-4-(pyridin-4-yloxy)-phenyl]-3-[5-(2-hydroxy-1,1-dimethyl-ethyl)-2-p-tolyl-2H-pyrazol-3-yl]-urea]	–	–
6.00 to 6.60	Cc1ccc(-n2nc(C(C)(C)C)cc2NC(=O)Nc2ncc(CCc3ccncc3)s2)cc1 [Compound 270, 1-(5-tert-Butyl-2-p-tolyl-2H-pyrazol-3-yl)-3-[5-(2-pyridin-4-yl-ethyl)-thiazol-2-yl]-urea]	–	–
6.00 to 6.60	CC(=O)Nc1cc(COc2ccc(NC(=O)Nc3cc(C(C)(C)C)ccc3Cl)c(F)c2)ccn1 [Compound 414, N-(4-{4-[3-(5-tert-Butyl-2-chloro-phenyl)-ureido]-3-fluoro-phenoxymethyl}-pyridin-2-yl)-acetamide]	–	–
6.00 to 6.60	CC(C)(C)c1cc(NC(=O)Nc2ncc(CCc3ccnc(N)c3)s2)no1 [Compound 365, 1-{5-[2-(2-Amine-pyridin-4-yl)-ethyl]-thiazol-2-yl}-3-(5-tert-butyl-isoxazol-3-yl)-urea]	–	–
6.00 to 6.60	Cn1nc(C(C)(C)C)cc1NC(=O)Nc1ccc(CCc2ccnc(NC(=O)C3CC3)c2)cc1F [Compound 373, Cyclopropanecarboxylic acid [4-(2-{4-[3-(5-tert-butyl-2-methyl-2H-pyrazol-3-yl)-ureido]-3-fluoro-phenyl}-ethyl)-pyridin-2-yl]-amide]	–	–
6.00 to 6.60	CC(C)(C)c1cc(NC(=O)Nc2ncc(CCc3ccncc3)s2)on1 [Compound 386, 1-(3-tert-Butyl-isoxazol-5-yl)-3-[5-(2-pyridin-4-yl-ethyl)-thiazol-2-yl]-urea]	–	–
–	CCOC(=O)Nc1cc(CCc2cnc(NC(=O)Nc3cc(C(C)(C)C)n[nH]3)s2)ccn1 [Compound 354, [4-(2-{2-[3-(5-tert-Butyl-2H-pyrazol-3-yl)-ureido]-thiazol-5-yl}-ethyl)-pyridin-2-yl]-carbamic acid ethyl ester]	marked attenuation	> 6.60
6.00 to 6.60	Cc1ccc(-n2nc(C(C)(C)CO)cc2NC(=O)Nc2ccc(Oc3ccncc3)cc2)cc1 [Compound 280, 1-[5-(2-Hydroxy-1,1-dimethyl-ethyl)-2-p-tolyl-2H-pyrazol-3-yl]-3-[4-(pyridin-4-yloxy)-phenyl]-urea]	–	–
6.00 to 6.60	Cc1ccc(-n2nc(C(C)(C)C)cc2NC(=O)Nc2ncc(CCc3ccnc(NC(=O)OCc4ccccc4)c3)s2)cc1 [Compound 277, [4-(2-{2-[3-(5-tert-Butyl-2-p-tolyl-2H-pyrazol-3-yl)-ureido]-thiazol-5-yl}-ethyl)-pyridin-2-yl]-carbamic acid benzyl ester]	–	–
6.00 to 6.60	CC(C)(C)c1cc(NC(=O)Nc2ncc(CCc3ccnc(N)c3)s2)[nH]n1 [Compound 367, 1-{5-[2-(2-Ainino-pyridin-4-yl)-ethyl]-thiazol-2-yl}-3-(5-tert-butyl-2H-pyrazol-3-yl)-urea]	–	–

SMILES	pIC50 (MAPK13 [3])	MUC5AC production [1]	pIC50 (MAPK13 [2])
CC(=O)Nc1cc(COc2ccc(NC(=O)Nc3cc([Si](C)(C)C)ccc3F)c(F)c2)ccn1 [Compound 405, N-(4-{3-fluoro-4-[3-(2-fluoro-trimethylsilanyl-phenyl)-ureido]-phenoxymethyl}-pyridin-2-yl)-acetamide]	6.00 to 6.60	–	–
